Test results from PMC12845422, “Characterization of a Novel Family of Contilisant + Belinostat Multitarget Small Molecules in Glioblastoma” (Pharmaceuticals, 2025).
Values joined by “and” are separate entries in the source; they are usually repeats but may differ in a detail not shown here. Equal entries are not always repeated. “Also recorded” adds a separate entry of the source.

Tests used:
GNS166 cells [1] = experiment: Cell cycle analysis by flow cytometry; assay type: cell-based; conditions: 5 μM
Protocol: Cells were harvested using accutase and washed with PBS. Then, 1·10^6 cells were fixed with 70% cold ethanol at −20 °C for at least 24 h, and incubated with 0.5% Triton X-100 and 25 µg/mL RNase A in PBS for 30 minutes at room temperature. Then, DNA was stained with 25 ng/mL propidium iodide for 15 minutes and samples were analyzed using a CytoFLEX flow cytometer (Beckman Coulter Co., Brea, CA, USA).

subcutaneous tumors = experiment: In vivo carcinogenesis assay, combination with TMZ; parameters: species or system mice
Protocol: (§1) Subcutaneous tumor growth was initiated by injecting 5 × 10^5 cells into both hind flanks of athymic nude-Foxn1^nu mice. Once the tumors reached 25–50 mm^3, mice were allocated to treatment groups by gender and tumor size. For monotherapy, mice were treated intratumorally with vehicle (DMSO dilution) or 200 µM of MTP150 or intraperitoneally with 15 mg/kg, on a 5-days-on, 2-days-off schedule. In combination therapy, 0.5 mg/Kg TMZ or vehicle was administered intraperitoneally during the first 5 days; intratumoral MTP150 or vehicle was delivered with the same schedule. After 4 weeks, mice were sacrificed and tumors were extracted.

H1299 lung cancer cells = experiment: MTT cell viability, H1299; assay type: cell-based; conditions: Homo sapiens, NCI-H1299; MSM 0–10 μM
Protocol: (§2) Cells were seeded at a density of 1.5 × 10^3 cells/well (conventional cell lines) or 5 × 10^3 cells/well (GNS and NHA) in 96-well plates and incubated overnight. Cells were then treated with increasing concentrations of MSMs. After 72 h, cells were incubated for 3.5 h with MTT, after which absorbance at 570 nm was measured. IC50 values were calculated using GraphPad Prism software.

U87-MG cells [2] = experiment: MTT cell viability, U87-MG; assay type: cell-based; conditions: Homo sapiens, U-87 MG, 72 h
Protocol: as §2

[3] = tested on: MKN45, RWP1 and H1299 cancer cells; experiment: MTT cell viability, summary over gastric, pancreatic and lung cancer cells; assay type: cell-based; conditions: range over the three cell lines; read-out: IC50 range across MKN45, RWP1 and H1299
Protocol: as §2

[4] = tested on: GNS179 patient-derived GSCs; experiment: MTT cell viability, GNS179; assay type: cell-based
Protocol: as §2

[5] = tested on: U87-MG subcutaneous tumors; experiment: In vivo carcinogenesis assay, monotherapy, subcutaneous U87-MG tumors; parameters: species or system mice
Protocol: as §1

[6] = tested on: MKN45 gastric cancer cells; experiment: MTT cell viability, MKN45; assay type: cell-based; conditions: Homo sapiens, MKN-45; MSM 0–10 μM
Protocol: as §2

recombinant hMAO-B = molecular target: T1, recombinant hMAO-B (Homo sapiens, UniProt P27338); experiment: MAO-B inhibition assay; assay type: biochemical; conditions: 30 min preincubation, 37 °C
T1 sequence (P27338 1-520): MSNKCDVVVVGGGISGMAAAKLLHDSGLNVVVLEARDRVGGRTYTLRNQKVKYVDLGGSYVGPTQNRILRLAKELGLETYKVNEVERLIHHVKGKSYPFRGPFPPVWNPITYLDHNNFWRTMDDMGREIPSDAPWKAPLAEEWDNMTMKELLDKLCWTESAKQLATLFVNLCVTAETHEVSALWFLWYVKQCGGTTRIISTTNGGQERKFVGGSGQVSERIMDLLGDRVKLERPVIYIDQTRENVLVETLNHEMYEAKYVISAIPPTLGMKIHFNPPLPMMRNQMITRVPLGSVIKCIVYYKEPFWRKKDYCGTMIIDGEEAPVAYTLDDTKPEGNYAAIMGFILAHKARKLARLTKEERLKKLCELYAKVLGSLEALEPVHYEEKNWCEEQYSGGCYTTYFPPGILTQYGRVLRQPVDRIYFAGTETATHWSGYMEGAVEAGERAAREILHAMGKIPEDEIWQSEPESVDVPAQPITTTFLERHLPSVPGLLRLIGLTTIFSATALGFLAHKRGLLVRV
Protocol: Subsequently, 200 U/mL horseradish peroxidase, 20 mM Ampliflu Red and 100 mM tyramine hydrochloride (Sigma-Aldrich) were added, and absorbance was measured at 570 nm every 5 min for 30 min. The inhibition percentage was calculated from these absorbance values.

GNS166 cells [7] = experiment: Western blot of acetylated α-tubulin and acetylated H3, GNS166; assay type: cell-based; conditions: increasing concentrations
Protocol: (§3) Sodium dodecyl sulfate-polyacrylamide gel electrophoresis was performed. Primary antibodies against HDAC1 (Abcam, Waltham, MA, USA) and HDAC6 (Cell Signaling, Danvers, MA, USA), along with their downstream targets, acetylated H3 (Cell Signaling) and acetylated α-tubulin (Abcam), were used. β-actin (Sigma-Aldrich) served as endogenous control. Secondary antibodies conjugated to horseradish peroxidase (anti-rabbit or anti-mouse; Cell Signaling) were applied. Proteins were detected using the iBright imaging system and either NOVEX ECL Chemi Substrate or SuperSignal West Femto Maximum Sensitivity Substrate (ThermoFisher, Waltham, MA, USA).

GNS179 cells = experiment: Immunofluorescence proliferation / apoptosis, GNS179; assay type: cell-based; conditions: dose-dependent
Protocol: (§4) For immunofluorescence assays, cells were seeded at a density of 2 × 10^4 cells/well in 8-well immunofluorescence chambers (LabTek Thermo, Waltham, MA, USA) and incubated overnight. Following 48 h of treatment, cells were fixed with 4% PFA. Primary antibodies against phospho-Histone H3 (p-H3, Abcam) and Caspase 3 (R&D Systems, Minneapolis, MN, USA) and secondary antibodies Alexa Fluor anti-mouse and anti-rabbit (Invitrogen, Carlsbad, CA, USA) were used. Nuclei were stained with DAPI (Sigma-Aldrich). Images were acquired using an Axio Observer 7 epifluorescence microscope, and quantification was performed with Qupath software version 0.6.0.

[8] = tested on: Normal Human Astrocytes (NHAs); experiment: MTT cell viability, normal human astrocytes; assay type: cell-based; conditions: Astrocyte, MSM 0–100 μM, 72 h, read-out: IC50 in NHA
Protocol: as §2

[9] = Cell viability (MTT) of TMZ and MTP150 alone and combined; assay type: cell-based; conditions: 250 µM TMZ, 0.5 µM MTP150, 72 h
Protocol: as §2

BChE = BChE (Homo sapiens, UniProt P06276); experiment: BChE inhibition, Ellman's colorimetric method
Protocol: To assess ChEs inhibition, Ellman’s colorimetric method was followed. […] After incubation, the substrate solution (acetylthiocholine or butyrylthiocholine iodide, Sigma-Aldrich, at 1.5 mM) was added, and absorbance was recorded at 405 nm every minute for 10 min. […] Enzyme kinetics were evaluated with varying substrate and inhibitor concentrations, and the results were plotted as Lineweaver–Burk plots using GraphPad Prism software. The inhibition constant (Ki) was estimated from the intersection on the x-axis in secondary plots.

U87-MG cells [10] = experiment: Western blot of acetylated α-tubulin and acetylated H3, U87-MG; assay type: cell-based; conditions: 0.5, 1 and 10 µM
Protocol: as §3

In vivo toxicity assay = conditions: intraperitoneal, 15 mg/kg
Protocol: Briefly, 15 mg/kg of MTP150 or vehicle (DMSO) was administered intraperitoneally to athymic nude-Foxn1^nu mice on a 5-days-on, 2-days-off schedule. Body weight was monitored to assess MSM potential toxicity. At the end-point, macroscopic analysis of the different organs was carried out.

U251-MG cells [11] = experiment: Immunofluorescence proliferation / apoptosis, U251-MG; assay type: cell-based; conditions: dose-dependent
Protocol: as §4

[12] = tested on: RWP1 pancreatic cancer cells; experiment: MTT cell viability, RWP1; assay type: cell-based; conditions: MSM 0–10 μM
Protocol: as §2

U251-MG cells [13] = experiment: MTT cell viability, U251-MG; assay type: cell-based
Protocol: as §2

HDAC1 = tested on: HDAC1; parameters: method as in PMID 40109740; conditions: read-out: HDAC inhibitory activity HDAC1 (IC50); cited from earlier work
HDAC6 = tested on: HDAC6; parameters: method as in PMID 40109740; conditions: read-out: HDAC inhibitory activity HDAC6 (IC50); cited from earlier work
[14] = intraperitoneal treatment, immunohistochemistry at end-point
[15] = intratumoral, immunohistochemistry at end-point

Sequence of BChE (P06276 29-602, species assumed): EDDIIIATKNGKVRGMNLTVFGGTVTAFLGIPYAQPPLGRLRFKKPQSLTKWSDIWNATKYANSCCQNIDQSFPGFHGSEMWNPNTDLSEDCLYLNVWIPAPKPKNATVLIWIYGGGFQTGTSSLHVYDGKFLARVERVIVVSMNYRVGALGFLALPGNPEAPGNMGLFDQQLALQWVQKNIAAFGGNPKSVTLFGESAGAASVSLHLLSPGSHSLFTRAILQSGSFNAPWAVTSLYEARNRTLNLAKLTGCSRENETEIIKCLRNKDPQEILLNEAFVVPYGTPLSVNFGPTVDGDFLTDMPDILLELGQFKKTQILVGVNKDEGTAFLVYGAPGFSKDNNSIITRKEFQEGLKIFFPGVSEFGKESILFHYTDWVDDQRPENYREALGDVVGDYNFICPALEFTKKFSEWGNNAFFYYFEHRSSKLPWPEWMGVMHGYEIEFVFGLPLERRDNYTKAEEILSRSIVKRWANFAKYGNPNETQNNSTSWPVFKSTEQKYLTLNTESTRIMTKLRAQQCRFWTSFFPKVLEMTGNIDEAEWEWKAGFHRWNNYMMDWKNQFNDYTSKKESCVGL

Structure (SMILES): O=C(/C=C/c1cccc(S(=O)(=O)Nc2ccccc2)c1)NO [Belinostat]
- cell cycle alterations (GNS166 cells [1]): accumulation of cells in the subG0 phase

Structure (SMILES): Cn1nnc2c(C(N)=O)ncn2c1=O [TMZ, temozolomide, reference compound]
- average tumor volume (subcutaneous tumors; TMZ 0.5 mg/Kg i.p. first 5 days, intratumoral MTP150 or vehicle): ~ 580 mm^3

Structure (SMILES): O=C(/C=C/c1cccc(S(=O)(=O)n2ccc3cc(OCCCN4CCCCC4)ccc32)c1)NO [MTP150]
- IC50 (H1299 lung cancer cells): 700 nM
- IC50 (U87-MG cells [2]): 0.55 µM
- cell cycle alterations (GNS166 cells [1]): accumulation of cells in the subG0 phase
- IC50 [3]: 100 to 700 nM
- IC50 [4]: 6.03 µM and 6 µM
- oncospheres generated by cells dissociated from treated tumors ([5]; 10 days in the absence of treatment): significantly fewer oncospheres
- average tumor volume ([5]; intraperitoneal treatment, U87-MG subcutaneous tumors): ~ 270 mm^3
- acetyl-α-tubulin and acetyl H3 staining in tumors [5, 14]: promotes an increase in both
- cleaved Caspase 3 staining in tumors [5, 14]: increase in apoptosis
- average tumor volume ([5]; intratumoral 200 µM): ~ 480 mm^3
- reduction in final tumor volume vs control ([5]; intratumoral 200 µM): ~ 50%
- tumor weight, lower mass than controls ([5]; intratumoral 200 µM, end-point day 39): > 40%
- PCNA positive cells in resected tumors [5, 15]: fewer PCNA positive cells
- cleaved Caspase 3 in resected tumors [5, 15]: increased cleaved Caspase 3
- tumor inhibition compared with Belinostat ([5]; relative tumor inhibition): more intense tumor inhibition
- IC50 [6]: 200 nM
- IC50 (recombinant hMAO-B): 1.5 µM
- levels of acetylated α-tubulin and acetylated H3 (GNS166 cells [7]): higher levels of acetylated α-tubulin and H3 than both Belinostat and SAHA
- apoptosis (Caspase 3-positive cells) (GNS179 cells): increased
- proliferation (p-H3- and Ki67-positive cells) (GNS179 cells): reduced
- IC50 [8]: 5720 nM
- viability at 72 h [9]: 37%
- IC50 (BChE): 8090 nM
- Ki (BChE): 2510 nM
- BChE inhibition mechanism (BChE; Lineweaver–Burk plot): mixed inhibition mechanism
- inhibition at 10 µM (BChE; read-out: BChE inhibition): 60%
- levels of acetylated α-tubulin and acetylated H3 (U87-MG cells [10]): highest levels of acetylated proteins; also recorded: higher levels of acetylated α-tubulin and H3 than both Belinostat and SAHA
- animal body weight compared to controls (In vivo toxicity assay; 5-days-on 2-days-off, 4 weeks): did not produce any significant changes in animal body weight
- macroscopic analysis of post-mortem tissues (In vivo toxicity assay; end-point): did not show clear differences
- apoptosis (Caspase 3-positive cells) (U251-MG cells [11]): increased
- proliferation (p-H3- and Ki67-positive cells) (U251-MG cells [11]): reduced
- antitumor activity compared with Belinostat (subcutaneous tumors; monotherapy and combination with TMZ): greater antitumor activity
- IC50 [12]: 100 nM
- IC50 (U251-MG cells [13]; Homo sapiens, U-251, MTT): 1.02 µM
- IC50 (U251-MG cells [13]; MTT): 1 µM

Structure (SMILES): COc1ccc2c(ccn2S(=O)(=O)c2cccc(/C=C/C(=O)NO)c2)c1 [MTP142]
- IC50 (H1299 lung cancer cells): 5640 nM
- IC50 (U87-MG cells [2]): 3.22 µM
- IC50 [6]: 3270 nM
- IC50 [8]: 9780 nM
- IC50 [12]: 970 nM

Structure (SMILES): O=C(/C=C/c1cccc(S(=O)(=O)n2ccc3cc(OCc4ccccc4)ccc32)c1)NO [MTP156]
- IC50 (H1299 lung cancer cells): 6630 nM
- IC50 (U87-MG cells [2]): 3.13 µM
- cell cycle alterations (GNS166 cells [1]): accumulation of cells in the subG0 phase
- IC50 [6]: 5740 nM
- IC50 [8]: 7690 nM
- IC50 (HDAC1): 210 nM
- IC50 (HDAC6): 330 nM
- IC50 [12]: 1170 nM
